Experimental data from the NIST ThermoML archive (doi:10.1016/j.tca.2013.05.017).
Numbers after ± are expanded uncertainties.

Details: 101.33 kPa, Crystal 2, Small (less than 1 g) adiabatic calorimetry

O=S(=O)([O-])[O-].[Sr+2] [sulfuric acid, strontium salt (1:1)]
Details	molar entropy [J/K/mol]
5 K	0.01272
10 K	0.1188 ± 0.033
15 K	0.4903 ± 0.04
20 K	1.25 ± 0.053
25 K	2.413 ± 0.066
30 K	3.947 ± 0.18
35 K	5.8 ± 0.19
40 K	7.917 ± 0.21
45 K	10.25 ± 0.23
50 K	12.75 ± 0.25
55 K	15.38 ± 0.27
60 K	18.11 ± 0.29
65 K	20.88 ± 0.31
70 K	23.69 ± 0.33
75 K	26.51 ± 0.35
80 K	29.33 ± 0.37
85 K	32.13 ± 0.39
90 K	34.9 ± 0.51
95 K	37.65 ± 0.53
100 K	40.36 ± 0.54
110 K	45.67 ± 0.57
120 K	50.82 ± 0.61
130 K	55.82 ± 0.64
140 K	60.67 ± 0.66
150 K	65.39 ± 0.69
160 K	69.99 ± 0.72
170 K	74.46 ± 0.75
180 K	78.81 ± 0.77
190 K	83.06 ± 0.8
200 K	87.2 ± 0.82
210 K	91.24 ± 0.85
220 K	95.18 ± 0.87
230 K	99.04 ± 0.89
240 K	102.82 ± 0.92
250 K	106.52 ± 0.94
260 K	110.15 ± 0.96
270 K	113.73 ± 0.98
273.15 K	114.84 ± 0.99
280 K	117.23 ± 1
290 K	120.68 ± 1
298.15 K	123.44 ± 1
300 K	124.06 ± 1
310 K	127.38 ± 1.1
320 K	130.64 ± 1.1
